Laboratory results from US20250176550A1, “HERBICIDE COMPOSITION OF URACIL COMPOUND CONTAINING CARBOXYLATE FRAGMENT AND THE USE THEREOF” (Jiangsu Flag Chemical Industry Co., Ltd., priority 2022, published 2025).

What was measured:
Test in all cases: Indoor virulence and combined effect, greenhouse pot test, post-emergence stem and leaf spray, fresh weight inhibition
Type in all cases: in vivo
alopecurus japonicus = tested on: alopecurus japonicus
In short: (§1)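 Weeds in greenhouse pots received a spray-tower treatment, either post-emergence at the 3–4 leaf (grasses) or 4–6 leaf (broadleaf) stage, or pre-emergence as a soil spray 24 h after sowing. Compounds were applied in acetone diluted with 0.1 wt% Tween-80 water, alone or mixed, in g/ha. Fresh weight inhibition was measured at 21 days, with synergy judged by Gowing expected efficacy (E−E0 >10%).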

digitaria sanguinalis = details: for Fresh weight suppression rate %, A single agent: Table 14
In short: as §1

eleusine indica = tested on: eleusine indica
In short: as §1

lolium multiflorum = tested on: lolium multiflorum
In short: as §1

echinochloa crusgalli = tested on: echinochloa crusgalli
Method: The active ingredients A and B are respectively screened and an indoor combined effect of the composition on weeds was evaluated by an indoor test and a field test, to determine a combined effect of the composition on weeds.
Quantitative seeds of Poaceae weeds (echinochloa crusgalli, Digitaria sanguinalis, setaria viridis, Eleusine indica, avena fatua, alopecurus japonicus, alopecurus aequalis, Lolium multiflorum) and broadleaf weeds (eclipta prostrata, rorippa dubia, Abutilon theophrasti, conyza canadensis, veronica persica, myosoton aquaticum, polygonum lapathifolium, galium aparine var. tenerum, alisma plantago-aquatica, geranium carolinianum) were sown in paper cup containing nutrient soil with a diameter of 7 cm, covered with soil for 1 cm after sowing. After pressing and watering, they were cultured in a greenhouse according to a conventional method. Poaceae weeds grew to 3˜4 leaf stage, broad-leaved weeds grew to 4˜6 leaf stage, spraying treatment to both stem and leaf was performed; and pre-seedling soil spray treatment was performed 24 hours after sowing. […] The experiment was repeated three times. After being treated, a sample material is placed in an operation hall, and after the drug solution is naturally dried out, the sample material is placed in a greenhouse and managed according to the conventional method.
All of original drugs were using acetone as a solvent, being diluted with 0.1 wt % emulsifier of Tween-80 aqueous solution, and being diluted right before using.
When determining a ratio or content of the active ingredient A and the active ingredient B, it should be measured from characteristics of action of both agents and virulence thereof, as well as the main purpose of use of a formula shall also be considered in. In the present study, on a basis of previous pre-test, the dosages of the active ingredient A and the active ingredient B were set, when being used alone and mixed, as shown in the following table. Water containing no agent, but containing the same solvent and emulsifier was used as a blank control.
Repeat 4 times for each treatment, 3 pots per treatment each time and 30 weed seeds were sown for each pot.
Adopting an absolute number survey method, using a blade to cut the whole seedling of surviving weed along soil surface, and weighting the fresh weight of the weed with an analytical balance. For weeds that had died, counting the fresh weight as zero.
Survey period and frequency: 21 days after the treatment, total 1 investigation.
When E-E0 value was greater than 10%, it was counted as a synergistic effect, less than −10%, it was counted as an antagonistic effect, and between −10%˜10%, it was counted as an additive effect. […] In the formula, X is the fresh weight inhibition rate of the ingredient A at a dosage of P; Y is the fresh weight inhibition rate of the active ingredient B at a dosage of Q.

**Q.** How did the “Fresh weight inhibition rate %, A single agent” value (shortened to “Fresh weight inhibition rate %”) (alopecurus japonicus; Table 5, 15 g a.i./ha, post-emergence, 21 days after treatment) turn out when `COCCOC(=O)C(C)(C)OC(=O)c1cc(-n2c(=O)cc(C(F)(F)F)n(C)c2=O)c(F)cc1Cl` [Compound A-273] was run?
**A.** 44.57%

**Q.** What about the “Fresh weight inhibition rate %” value (alopecurus japonicus; Table 5, 20 g a.i./ha, post-emergence, 21 days after treatment) of the same compound?
**A.** 61.55%

**Q.** And the “Fresh weight inhibition rate %” value (alopecurus japonicus; Table 5, 25 g a.i./ha, post-emergence, 21 days after treatment)?
**A.** 72.42%

**Q.** And the “Fresh weight inhibition rate %” value (alopecurus japonicus; Table 25, A 15 g a.i./ha)?
**A.** 44.57%

**Q.** And the “Fresh weight inhibition rate %” value (alopecurus japonicus; Table 25, A 20 g a.i./ha)?
**A.** 61.55%

**Q.** What about the “Fresh weight inhibition rate %” value (alopecurus japonicus; Table 25, A 25 g a.i./ha) of the same compound?
**A.** 72.42%

**Q.** And the “Fresh weight inhibition rate %” value (alopecurus japonicus; Table 25, A 30 g a.i./ha)?
**A.** 86.91%

**Q.** What about the “Fresh weight inhibition rate %” value (digitaria sanguinalis; Table 1, 10 g a.i./ha, post-emergence, 21 days after treatment) of the same compound?
**A.** 45.50%

**Q.** And the “Fresh weight inhibition rate %” value (digitaria sanguinalis; Table 1, 12.5 g a.i./ha, post-emergence, 21 days after treatment)?
**A.** 55.30%

**Q.** What about the “Fresh weight inhibition rate %” value (digitaria sanguinalis; Table 1, 20 g a.i./ha, post-emergence, 21 days after treatment) of the same compound?
**A.** 60.47%

**Q.** And the “Fresh weight inhibition rate %” value (digitaria sanguinalis; Table 1, 25 g a.i./ha, post-emergence, 21 days after treatment)?
**A.** 62.48%

**Q.** What about the “Fresh weight inhibition rate %” value (digitaria sanguinalis; Table 13, A 20 g a.i./ha) of the same compound?
**A.** 60.47%

**Q.** What about the “Fresh weight inhibition rate %” value (digitaria sanguinalis; Table 13, A 25 g a.i./ha) of the same compound?
**A.** 62.48%

**Q.** And the “Fresh weight inhibition rate %” value (digitaria sanguinalis; Table 13, A 30 g a.i./ha)?
**A.** 63.97%

**Q.** And the “Fresh weight suppression rate %, A single agent” value (shortened to “Fresh weight suppression rate %”) (digitaria sanguinalis; A 10 g a.i./ha)?
**A.** 31.16%

**Q.** And the “Fresh weight suppression rate %” value (digitaria sanguinalis; A 15 g a.i./ha)?
**A.** 59.30%

**Q.** And the “Fresh weight suppression rate %” value (digitaria sanguinalis; A 20 g a.i./ha)?
**A.** 60.47%

**Q.** What about the “Fresh weight suppression rate %” value (digitaria sanguinalis; A 30 g a.i./ha) of the same compound?
**A.** 65.40%

**Q.** What about the “Fresh weight inhibition rate %” value (digitaria sanguinalis; Table 15, A 15 g a.i./ha) of the same compound?
**A.** 59.3%

**Q.** What about the “Fresh weight inhibition rate %” value (digitaria sanguinalis; Table 15, A 20 g a.i./ha) of the same compound?
**A.** 60.47%

**Q.** And the “Fresh weight inhibition rate %” value (digitaria sanguinalis; Table 15, A 25 g a.i./ha)?
**A.** 62.48%

**Q.** What about the “Fresh weight inhibition rate %” value (digitaria sanguinalis; Table 16, A 10 g a.i./ha) of the same compound?
**A.** 9.55%

**Q.** What about the “Fresh weight inhibition rate %” value (digitaria sanguinalis; Table 16, A 20 g a.i./ha) of the same compound?
**A.** 45.07%

**Q.** And the “Fresh weight inhibition rate %” value (digitaria sanguinalis; Table 16, A 25 g a.i./ha)?
**A.** 58.81%

**Q.** What about the “Fresh weight inhibition rate %” value (digitaria sanguinalis; Table 16, A 30 g a.i./ha) of the same compound?
**A.** 60.30%

**Q.** And the “Fresh weight inhibition rate %” value (digitaria sanguinalis; Table 41, A 10 g a.i./ha)?
**A.** 45.50%

**Q.** What about the “Fresh weight inhibition rate %” value (digitaria sanguinalis; Table 41, A 15 g a.i./ha) of the same compound?
**A.** 59.30%

**Q.** And the “Fresh weight inhibition rate %” value (digitaria sanguinalis; Table 41, A 20 g a.i./ha)?
**A.** 60.47%

**Q.** And the “Fresh weight inhibition rate %” value (digitaria sanguinalis; Table 41, A 25 g a.i./ha)?
**A.** 62.48%

**Q.** What about the “Fresh weight inhibition rate %” value (eleusine indica; Table 18, A 5 g a.i./ha) of the same compound?
**A.** 34.65%

**Q.** And the “Fresh weight inhibition rate %” value (eleusine indica; Table 18, A 10 g a.i./ha)?
**A.** 43.34%

**Q.** And the “Fresh weight inhibition rate %” value (eleusine indica; Table 18, A 15 g a.i./ha)?
**A.** 55.00%

**Q.** What about the “Fresh weight inhibition rate %” value (eleusine indica; Table 18, A 20 g a.i./ha) of the same compound?
**A.** 68.03%

**Q.** What about the “Fresh weight inhibition rate %” value (eleusine indica; Table 32, A 15 g a.i./ha) of the same compound?
**A.** 55.00%

**Q.** What about the “Fresh weight inhibition rate %” value (eleusine indica; Table 32, A 20 g a.i./ha) of the same compound?
**A.** 68.03%

**Q.** What about the “Fresh weight inhibition rate %” value (eleusine indica; Table 32, A 25 g a.i./ha) of the same compound?
**A.** 70.36%

**Q.** And the “Fresh weight inhibition rate %” value (eleusine indica; Table 33, A 10 g a.i./ha)?
**A.** 43.34%

**Q.** And the “Fresh weight inhibition rate %” value (eleusine indica; Table 33, A 15 g a.i./ha)?
**A.** 55.00%

**Q.** And the “Fresh weight inhibition rate %” value (eleusine indica; Table 33, A 20 g a.i./ha)?
**A.** 68.03%

**Q.** And the “Fresh weight inhibition rate %” value (eleusine indica; Table 33, A 25 g a.i./ha)?
**A.** 70.36%

**Q.** And the “Fresh weight inhibition rate %” value (eleusine indica; Table 33, A 30 g a.i./ha)?
**A.** 75.35%

**Q.** What about the “Fresh weight inhibition rate %” value (eleusine indica; Table 35, A 10 g a.i./ha) of the same compound?
**A.** 43.34%

**Q.** What about the “Fresh weight inhibition rate %” value (eleusine indica; Table 35, A 15 g a.i./ha) of the same compound?
**A.** 55.00%

**Q.** What about the “Fresh weight inhibition rate %” value (eleusine indica; Table 35, A 20 g a.i./ha) of the same compound?
**A.** 68.03%

**Q.** And the “Fresh weight inhibition rate %” value (eleusine indica; Table 35, A 25 g a.i./ha)?
**A.** 70.36%

**Q.** And the “Fresh weight inhibition rate %” value (eleusine indica; Table 36, A 5 g a.i./ha)?
**A.** 34.65%

**Q.** What about the “Fresh weight inhibition rate %” value (eleusine indica; Table 36, A 10 g a.i./ha) of the same compound?
**A.** 43.34%

**Q.** And the “Fresh weight inhibition rate %” value (eleusine indica; Table 36, A 15 g a.i./ha)?
**A.** 55.00%

**Q.** What about the “Fresh weight inhibition rate %” value (eleusine indica; Table 36, A 20 g a.i./ha) of the same compound?
**A.** 68.03%

**Q.** What about the “Fresh weight inhibition rate %” value (eleusine indica; Table 36, A 25 g a.i./ha) of the same compound?
**A.** 70.36%

**Q.** What about the “Fresh weight inhibition rate %” value (lolium multiflorum; Table 19, A 5 g a.i./ha) of the same compound?
**A.** 22.25%

**Q.** And the “Fresh weight inhibition rate %” value (lolium multiflorum; Table 19, A 10 g a.i./ha)?
**A.** 50.48%

**Q.** What about the “Fresh weight inhibition rate %” value (lolium multiflorum; Table 19, A 15 g a.i./ha) of the same compound?
**A.** 55.50%

**Q.** And the “Fresh weight inhibition rate %” value (lolium multiflorum; Table 19, A 20 g a.i./ha)?
**A.** 60.05%

**Q.** And the “Fresh weight inhibition rate %” value (lolium multiflorum; Table 20, A 5 g a.i./ha)?
**A.** 22.25%

**Q.** What about the “Fresh weight inhibition rate %” value (lolium multiflorum; Table 20, A 10 g a.i./ha) of the same compound?
**A.** 50.48%

**Q.** And the “Fresh weight inhibition rate %” value (lolium multiflorum; Table 20, A 15 g a.i./ha)?
**A.** 55.50%

**Q.** And the “Fresh weight inhibition rate %” value (lolium multiflorum; Table 20, A 20 g a.i./ha)?
**A.** 60.05%

**Q.** What about the “Fresh weight inhibition rate %” value (lolium multiflorum; Table 27, A 15 g a.i./ha) of the same compound?
**A.** 55.5%

**Q.** What about the “Fresh weight inhibition rate %” value (lolium multiflorum; Table 27, A 20 g a.i./ha) of the same compound?
**A.** 60.05%

**Q.** What about the “Fresh weight inhibition rate %” value (lolium multiflorum; Table 27, A 25 g a.i./ha) of the same compound?
**A.** 77.30%

**Q.** And the “Fresh weight inhibition rate %” value (echinochloa crusgalli; Table 17, 15 g a.i./ha, post-emergence, 21 days after treatment)?
**A.** 30.04%

**Q.** What about the “Fresh weight inhibition rate %” value (echinochloa crusgalli; Table 17, 20 g a.i./ha, post-emergence, 21 days after treatment) of the same compound?
**A.** 21.43%

**Q.** What about the “Fresh weight inhibition rate %” value (echinochloa crusgalli; Table 17, 25 g a.i./ha, post-emergence, 21 days after treatment) of the same compound?
**A.** 19.41%

**Q.** What about the “Fresh weight inhibition rate %” value (echinochloa crusgalli; Table 37, A 10 g a.i./ha) of the same compound?
**A.** 19.41%

**Q.** What about the “Fresh weight inhibition rate %” value (echinochloa crusgalli; Table 37, A 15 g a.i./ha) of the same compound?
**A.** 21.43%

**Q.** What about the “Fresh weight inhibition rate %” value (echinochloa crusgalli; Table 37, A 20 g a.i./ha) of the same compound?
**A.** 30.04%

**Q.** What about the “Fresh weight inhibition rate %” value (echinochloa crusgalli; Table 37, A 25 g a.i./ha) of the same compound?
**A.** 38.28%

**Q.** And the “Fresh weight inhibition rate %” value (echinochloa crusgalli; Table 44, A 10 g a.i./ha)?
**A.** 19.41%

**Q.** What about the “Fresh weight inhibition rate %” value (echinochloa crusgalli; Table 44, A 15 g a.i./ha) of the same compound?
**A.** 21.43%

**Q.** And the “Fresh weight inhibition rate %” value (echinochloa crusgalli; Table 44, A 20 g a.i./ha)?
**A.** 30.04%

**Q.** What about the “Fresh weight inhibition rate %” value (echinochloa crusgalli; Table 44, A 25 g a.i./ha) of the same compound?
**A.** 38.28%
